The species named for one series is Homo sapiens. The series can be described thus: Selectivity ratio of Ki for human 5HT3A receptor to Ki for human 5HT4C receptor.
Series [1] concerns the target T1, 5-hydroxytryptamine receptor 4 (Homo sapiens, UniProt Q13639). The series can be described thus: Agonist activity at human 5HT4C receptor expressed at 100 fold physiological-level in HEK293 cells assessed as cAMP accumulation. Format: functional, cell-based.
In series [2] the target is T1, 5-hydroxytryptamine receptor 4. As to the kind of experiment: Intrinsic activity at human 5HT4C receptor expressed at 100 fold physiological-level in HEK293 cells assessed as cAMP accumulation relative to 5HT. Format: functional, cell-based. A general note: Changes in cAMP serve as a functional read-out for many G protein-coupled receptors.
In another series the target is hERG (KCNH2) (Homo sapiens, UniProt Q12809). As to the kind of experiment: Inhibition of human ERG expressed in CHO cells at 3 uM. The conditions noted are these: CHO cells expressing human ERG. Format: cell-based.
Sequence of hERG (KCNH2) (Q12809 whole entry): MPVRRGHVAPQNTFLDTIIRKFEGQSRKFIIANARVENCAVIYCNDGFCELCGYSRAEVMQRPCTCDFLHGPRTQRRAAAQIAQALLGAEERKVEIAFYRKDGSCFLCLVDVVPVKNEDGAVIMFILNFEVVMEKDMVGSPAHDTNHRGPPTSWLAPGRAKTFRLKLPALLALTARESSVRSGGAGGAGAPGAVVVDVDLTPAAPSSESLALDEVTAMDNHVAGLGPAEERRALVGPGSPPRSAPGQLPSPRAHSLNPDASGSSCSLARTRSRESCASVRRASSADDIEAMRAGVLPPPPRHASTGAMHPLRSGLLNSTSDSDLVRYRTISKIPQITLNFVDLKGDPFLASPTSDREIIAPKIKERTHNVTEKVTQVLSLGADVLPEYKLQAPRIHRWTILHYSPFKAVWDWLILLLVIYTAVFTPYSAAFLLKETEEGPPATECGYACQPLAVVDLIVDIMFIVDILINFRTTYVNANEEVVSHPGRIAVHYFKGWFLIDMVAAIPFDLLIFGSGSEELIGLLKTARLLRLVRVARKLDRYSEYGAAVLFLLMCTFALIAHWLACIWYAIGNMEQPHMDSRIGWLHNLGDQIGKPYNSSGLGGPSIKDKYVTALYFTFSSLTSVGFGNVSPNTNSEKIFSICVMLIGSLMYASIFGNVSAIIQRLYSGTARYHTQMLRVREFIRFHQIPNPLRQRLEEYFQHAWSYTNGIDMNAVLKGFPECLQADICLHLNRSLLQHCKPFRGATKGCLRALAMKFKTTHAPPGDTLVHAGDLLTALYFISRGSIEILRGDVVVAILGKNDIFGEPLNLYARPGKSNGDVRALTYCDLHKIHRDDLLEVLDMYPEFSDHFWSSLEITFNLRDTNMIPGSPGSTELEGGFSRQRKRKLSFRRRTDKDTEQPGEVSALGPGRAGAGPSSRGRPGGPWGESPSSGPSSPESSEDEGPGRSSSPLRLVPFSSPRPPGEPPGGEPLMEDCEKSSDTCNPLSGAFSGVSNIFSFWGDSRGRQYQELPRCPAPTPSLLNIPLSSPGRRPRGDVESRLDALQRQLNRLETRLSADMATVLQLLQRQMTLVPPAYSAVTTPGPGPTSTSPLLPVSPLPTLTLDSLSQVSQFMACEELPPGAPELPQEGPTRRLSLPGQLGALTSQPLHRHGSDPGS
Series [3] deals with T1, 5-hydroxytryptamine receptor 4. As to the kind of experiment: Agonist activity at human 5HT4C receptor expressed in a cell line expressing receptor at 10 fold physiological-level assessed as cAMP accumulation. In kind it is functional.
Series [4] has the same target. As to the kind of experiment: Intrinsic activity at human 5HT4C receptor expressed in a cell line expressing receptor at 10 fold physiological-level assessed as cAMP accumulation relative to 5HT. Format: functional.
For series [5] the target is unchanged. The series can be described thus: 5-HT4C receptor-mediated exchange of GDP for europium labeled GTP (pEC50).
For series [6] the target is unchanged. The series can be described thus: 5-HT4C receptor-mediated exchange of GDP for europium labeled GTP (intrinsic activity).
The target of series [7] is 5-hydroxytryptamine receptor 4 (Cavia porcellus, UniProt O70528). The series can be described thus: Agonist activity at 5HT4 receptor in guinea pig colon assessed as longitudinal muscle plexus contraction.
Sequence of 5-hydroxytryptamine receptor 4 (Cavia porcellus, UniProt O70528) (O70528 whole entry): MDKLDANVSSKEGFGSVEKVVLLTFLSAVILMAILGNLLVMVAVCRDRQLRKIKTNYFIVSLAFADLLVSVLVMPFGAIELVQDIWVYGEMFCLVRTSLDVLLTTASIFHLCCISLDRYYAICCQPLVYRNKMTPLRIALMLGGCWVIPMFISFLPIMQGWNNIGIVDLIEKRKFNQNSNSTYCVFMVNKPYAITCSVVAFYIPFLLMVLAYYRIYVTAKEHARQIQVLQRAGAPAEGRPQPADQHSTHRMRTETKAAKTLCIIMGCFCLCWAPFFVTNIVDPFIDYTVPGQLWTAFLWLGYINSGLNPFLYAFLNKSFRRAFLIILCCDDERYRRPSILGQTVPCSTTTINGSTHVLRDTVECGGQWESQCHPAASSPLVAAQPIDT
The test system of the next series is Cavia porcellus. The series can be described thus: Agonist activity at 5HT4 receptor in sc dosed guinea pig assessed as decrease in colonic transit time of carmine red dye after 60 mins relative to vehicle treated control. In kind it is functional, organism-based.
Series [8] addresses T1, 5-hydroxytryptamine receptor 4. The series can be described thus: biochemical.
Description: Displacement of [3H]GR113808 from human recombinant 5HT4C receptor expressed in HEK293 cells
The nature of series [9]: Half life in rat liver microsomes. Particulars: liver microsomes. Format: ADME, Microsome. Background: Liver microsomes are a subcellular fraction often used to study metabolism.
A short description of series [10]: Permeability across human Caco2 cells. In kind it is ADME, cell-based. Particulars: Caco-2, read-out: Kp. Background: Caco-2 monolayers are a common model of the intestinal barrier.
Series [11] can be described thus: Cmax in Sprague-Dawley rat at 5 mg/kg, po. Format: ADME, organism-based. The arrangement: dose 5 mg/kg, route oral. Particulars: in vivo.
Series [12] in a line: AUC (0 to t) in Sprague-Dawley rat at 5 mg/kg, po. In kind it is ADME, organism-based. On the set-up: dose 5 mg/kg, route oral. Particulars: plasma.
Series [13] can be described thus: Half life in Sprague-Dawley rat at 5 mg/kg, po. The conditions noted are these: in vivo. In kind it is ADME, organism-based. On the set-up: dose 5 mg/kg, route oral.
The nature of series [14]: Oral bioavailability in Sprague-Dawley rat at 5 mg/kg. In kind it is ADME, organism-based. The conditions noted are these: in vivo.
For a further series, the system named is Rattus norvegicus. As to the kind of experiment: 5-HT4 receptor-mediated esophageal relaxation in anesthetized rat (following i.v. administration) using digital sonomicrometry. Format: functional. Particulars: Sprague-Dawley, iv.

This note sets out measurements from ChEMBL document CHEMBL2057108 (Bioorg Med Chem Lett, 2012).

Calls of active or inactive are those of the source. No cut-off for these calls is given here. Some results are limits rather than exact numbers.

T1 sequence (Q13639 whole entry): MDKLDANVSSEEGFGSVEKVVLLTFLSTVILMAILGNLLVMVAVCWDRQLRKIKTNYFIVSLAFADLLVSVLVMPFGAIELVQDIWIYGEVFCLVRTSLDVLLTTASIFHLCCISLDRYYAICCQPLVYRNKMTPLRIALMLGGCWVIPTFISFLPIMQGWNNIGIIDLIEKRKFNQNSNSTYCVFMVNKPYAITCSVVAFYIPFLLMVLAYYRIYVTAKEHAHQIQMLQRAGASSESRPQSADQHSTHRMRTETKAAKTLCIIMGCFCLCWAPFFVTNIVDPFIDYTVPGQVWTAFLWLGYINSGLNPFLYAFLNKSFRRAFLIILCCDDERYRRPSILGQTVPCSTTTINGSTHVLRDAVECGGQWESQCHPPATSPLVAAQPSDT

Regarding `CCCCCNC(=N)N/N=C/c1c[nH]c2ccc(OC)cc12` [TEGASEROD], in the series listed under Homo sapiens, the Ratio Ki is 580. Also, the results for the concentration giving a half-maximal response (EC50) in series [1], in [5] and in series [7] were 1 nM, 15.8 nM and 6.31 nM, respectively. Further, the figures for the Intrinsic activity in series [2], in series [4] and in series [6] were 115%, 99% and 71%, respectively. The inhibition at 3 µM at hERG (KCNH2) is 33%. The pEC50 in series [3] worked out at 8.7. Besides, the result in the series on Cavia porcellus was inactive.

For `CC(C)n1nc(C(=O)N[C@H]2C[C@H]3CC[C@@H](C2)N3CCCCCCN2CCCCC2)c2ccccc21`, in the series filed under Homo sapiens, the Ratio Ki was determined as 12. Moreover, the concentration giving a half-maximal response (EC50) in series [1] is 2.51 nM. Also, the Intrinsic activity in series [2] came to 102%. Moreover, the affinity in [8] corresponds to a Ki of 1 nM.

As for `CC(C)n1nc(C(=O)N[C@H]2C[C@H]3CC[C@@H](C2)N3C[C@H](O)CN2CCN(S(C)(=O)=O)CC2)c2ccccc21`, the Ratio Ki in the series filed under Homo sapiens came out at 240. For the same molecule, the 50% effective concentration (EC50) in series [1] is 0.794 nM. The Intrinsic activity in [2] stood at 94%. Besides, the inhibition at 3 µM against hERG (KCNH2) came to 7%. This molecule also registered a half-life in [9] of more than 1.5 h. Besides, the Papp in series [10] turned out to be 18 ×10⁻⁶ cm/s. This molecule also had an inhibition constant (Ki) in series [8] of 7.94 nM.

Consider `CC(C)n1nc(C(=O)N[C@H]2C[C@H]3CC[C@@H](C2)N3CC(O)CN2CCC(CNS(C)(=O)=O)CC2)c2ccccc21` (stereo not given in full), for which, in the series listed under Homo sapiens, the Ratio Ki was found to be 19000. Besides, the EC50 in series [1] is 0.631 nM. Moreover, the Intrinsic activity in series [2] was 93%. Besides, the half-life in series [9] is more than 1.5 h. In series [10], the Papp was 1 ×10⁻⁶ cm/s. Also, the inhibition constant (Ki) in series [8] is 2.51 nM.

`CC(C)n1nc(C(=O)N[C@H]2C[C@H]3CC[C@@H](C2)N3CC(O)CN2CCCCC2)c2ccccc21` (stereo not given in full): the Ratio Ki in the series filed under Homo sapiens came to 13000. For the same molecule, the concentration giving a half-maximal response (EC50) in series [1] is 2 nM. Moreover, the Intrinsic activity in series [2] was 85%. For the same molecule, the inhibition at 3 µM at hERG (KCNH2) is 62%. In [9], this molecule gave a half-life of more than 1.5 h. Also, the Papp in series [10] was determined as 30 ×10⁻⁶ cm/s. The molecule also had a Ki in [8] of 2 nM.

Consider `CC(C)n1nc(C(=O)N[C@H]2C[C@H]3CC[C@@H](C2)N3CC(O)CN2CCN(S(C)(=O)=O)CC2)c2ccccc21` (stereo not given in full), for which the Ratio Ki in the series listed under Homo sapiens came out at 7300. Further, the EC50 in [1] was 0.794 nM. The Intrinsic activity in series [2] came to 95%. For the same molecule, the inhibition at 3 µM against hERG (KCNH2) worked out at 4%. The same molecule showed a half-life in series [9] of more than 1.5 h. In series [10], the Papp worked out at 19 ×10⁻⁶ cm/s. Further, the inhibitory constant (Ki) in [8] was 3.98 nM.

For the molecule `CC(C)n1nc(C(=O)N[C@H]2C[C@H]3CC[C@@H](C2)N3CCCCCCN2CCN(S(C)(=O)=O)CC2)c2ccccc21`, in the series filed under Homo sapiens, the Ratio Ki amounted to 3.6. For the same molecule, the EC50 in series [1] is 12.6 nM. For the same molecule, the Intrinsic activity in series [2] amounted to 75%. For the same molecule, the affinity in series [8] corresponds to a Ki of 2.51 nM.

For `CC(C)n1nc(C(=O)N[C@H]2C[C@H]3CC[C@@H](C2)N3CCN2CCN(S(C)(=O)=O)CC2)c2ccccc21`, the Ratio Ki in the series listed under Homo sapiens is 110. Further, in series [1], the EC50 was 3.98 nM. Also, the Intrinsic activity in [2] was determined as 88%. The inhibition at 3 µM against hERG (KCNH2) was determined as 9%. Besides, the half-life is more than 1.5 h in series [9] and 1.8 h in series [13]. In addition, the Papp in series [10] came to 31 ×10⁻⁶ cm/s. This molecule also yielded a maximum concentration (Cmax) in [11] of 99 ng/mL. The AUC(0-t) in series [12] is 260 ng·h/mL. This molecule also displayed a bioavailability in [14] of 48%. This molecule also had an inhibition constant Ki in series [8] of 12.6 nM.

Consider `CC(C)N(C)CCCCCCN1[C@@H]2CC[C@H]1C[C@@H](NC(=O)c1nn(C(C)C)c3ccccc13)C2`, for which the Ratio Ki in the series filed under Homo sapiens was 23. In addition, the 50% effective concentration (EC50) in series [1] is 5.01 nM. Further, in series [2], the Intrinsic activity came to 92%. The same molecule gave an inhibition constant Ki in [8] of 1 nM.

As for `COC[C@@H]1CCCN1CCCCCCN1[C@@H]2CC[C@H]1C[C@@H](NC(=O)c1nn(C(C)C)c3ccccc13)C2`, in the series listed under Homo sapiens, the Ratio Ki amounted to 14. In series [1], the EC50 was 0.794 nM. Besides, in [2], the Intrinsic activity turned out to be 117%. Also, the affinity in series [8] corresponds to a Ki of 0.794 nM.

For the molecule `CC(C)n1nc(C(=O)N[C@H]2C[C@H]3CC[C@@H](C2)N3CCCCCCN2CCC(CNS(C)(=O)=O)CC2)c2ccccc21`, the Ratio Ki in the series listed under Homo sapiens came out at 4.3. Further, the EC50 in series [1] is 1.58 nM. In addition, in series [2], the Intrinsic activity turned out to be 91%. The affinity in series [8], expressed as Ki, was 1.58 nM.

Regarding `CC(C)n1nc(C(=O)N[C@H]2C[C@H]3CC[C@@H](C2)N3)c2ccccc21`, the Ratio Ki in the series filed under Homo sapiens is less than 1.

Turning to `CC(C)n1c(=O)c(C(=O)N[C@H]2C[C@H]3CC[C@@H](C2)N3C[C@@H](O)CN2CCN(S(C)(=O)=O)CC2)cc2ccccc21`, the Ratio Ki in the series listed under Homo sapiens was determined as 7400. Besides, the values for the half-maximal effective concentration (EC50) in series [3] and in [5] were 2 nM and 3.98 nM, respectively. The Intrinsic activity in series [4] and in series [6] was more than 100% in each case. For the same molecule, it took a dose of 0.142 mg/kg to reach the 50% effect level in the series on Rattus norvegicus (ED50).

For `CC(C)N(C)CC(O)CN1[C@@H]2CC[C@H]1C[C@@H](NC(=O)c1nn(C(C)C)c3ccccc13)C2` (stereo not given in full), in the series listed under Homo sapiens, the Ratio Ki worked out at 6300. The 50% effective concentration (EC50) in series [1] is 5.01 nM. Moreover, in [2], the Intrinsic activity worked out at 78%. The inhibition at 3 µM against hERG (KCNH2) was 29%. This molecule registered a half-life in series [9] of more than 1.5 h. Also, the Papp in series [10] is 26 ×10⁻⁶ cm/s. Moreover, in series [8], the affinity corresponds to a Ki of 3.98 nM.

For `COC[C@@H]1CCCN1CC(O)CN1[C@@H]2CC[C@H]1C[C@@H](NC(=O)c1nn(C(C)C)c3ccccc13)C2` (stereo not given in full), the Ratio Ki in the series listed under Homo sapiens was determined as 3000. In addition, in [1], the concentration giving a half-maximal response (EC50) is 2.51 nM. The Intrinsic activity in [2] came to 108%. For the same molecule, testing at 3 µM at hERG (KCNH2) gave an inhibition of 33%. Also, the half-life in series [9] turned out to be 1.25 h. Besides, the Papp in series [10] was determined as 48 ×10⁻⁶ cm/s. In series [8], this molecule gave a Ki of 3.98 nM.

Consider `CC(C)n1nc(C(=O)N[C@H]2C[C@H]3CC[C@@H](C2)N3C[C@@H](O)CN2CCN(S(C)(=O)=O)CC2)c2ccccc21`, for which, in the series listed under Homo sapiens, the Ratio Ki was 23000. Moreover, the half-maximal effective concentration (EC50) in series [1] was 0.398 nM. Besides, in series [2], the Intrinsic activity stood at 86%. In addition, on hERG (KCNH2), the inhibition at 3 µM is 7%. Besides, the figures for the half-life in [9] and in [13] were more than 1.5 h and 7.4 h, respectively. Besides, the Papp in series [10] was 19 ×10⁻⁶ cm/s. Besides, the concentration in [11] peaked (Cmax) at 35 ng/mL. The molecule further showed an AUC(0-t) in [12] of 240 ng·h/mL. The bioavailability in [14] was 36%. In addition, the Ki in series [8] was 2.51 nM.

As a reminder, the EC50 is the concentration that produces a half-maximal response. As usually defined, the inhibition is the drop in the measured response relative to a control, in per cent. Low readings indicate a response near the control, high ones a response far below the control. As usually defined, the pEC50 is −log10 of the EC50, conventionally taken in molar units. For orientation: Ki means a dissociation constant, usually derived from enzyme kinetics or from competition with a known ligand. Higher therefore signals a looser hold on the target. The half-life is the time in which the quantity being followed falls by half. Read a high half-life as slow loss. As a reminder, the Cmax is the peak of the concentration-time curve. In general, AUC(0-t) refers to the area under the concentration-time curve up to a stated or last time point. A low value points to low exposure. By bioavailability is commonly meant the share of a dose that reaches the circulation, judged against a reference dose that is usually intravenous. The low end stands for little systemic uptake, the high end for much systemic uptake. By ED50 is commonly meant the dose that gives a 50% effect, or the effect in half of the subjects.
